Source: PubChem BioAssay (NCI)
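Compound exposure: 48 hours, 5 concentrations, 96-well plates. TGI is the concentration that stops growth completely.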

Assays:
Assay in all cases: NCI-60 cell line screen, 48 h
NCI-H226 lung = test system: NCI-H226 lung
PC-3 prostate = test system: PC-3 prostate
CAKI-1 renal = test system: CAKI-1 renal
HOP-62 NSCLC = test system: HOP-62 NSCLC
OVCAR-3 ovarian = test system: OVCAR-3 ovarian
SK-MEL-2 melanoma = test system: SK-MEL-2 melanoma
IGROV1 ovarian = test system: IGROV1 ovarian
OVCAR-8 ovarian = test system: OVCAR-8 ovarian
UACC-62 melanoma = test system: UACC-62 melanoma
BT-549 breast = test system: BT-549 breast
EKVX NSCLC = test system: EKVX NSCLC
NCI-H460 lung = test system: NCI-H460 lung
HL-60(TB) leukemia = test system: HL-60(TB) leukemia
MCF7 breast = test system: MCF7 breast
NCI-H23 lung = test system: NCI-H23 lung
HT29 colon = test system: HT29 colon
MDA-N = test system: MDA-N
MALME-3M melanoma = test system: MALME-3M melanoma
SK-MEL-28 melanoma = test system: SK-MEL-28 melanoma

Row | Structure (SMILES) | TGI (NCI-H226 lung) | TGI (PC-3 prostate) | TGI (CAKI-1 renal) | TGI (HOP-62 NSCLC) | TGI (OVCAR-3 ovarian) | TGI (SK-MEL-2 melanoma) | TGI (IGROV1 ovarian) | TGI (OVCAR-8 ovarian) | TGI (UACC-62 melanoma) | TGI (BT-549 breast) | TGI (EKVX NSCLC) | TGI (NCI-H460 lung) | TGI (HL-60(TB) leukemia) | TGI (MCF7 breast) | TGI (NCI-H23 lung) | TGI (HT29 colon) | TGI (MDA-N) | TGI (MALME-3M melanoma) | TGI (SK-MEL-28 melanoma)
1 | COC(=O)[C@H](Cc1c[nH]c2ccccc12)NP(=O)(O)OC[C@H]1O[C@@H](n2cc(C)c(=O)[nH]c2=O)C[C@@H]1N=[N+]=[N-] | > 100 µM | > 100 µM | > 100 µM | > 100 µM | > 100 µM | > 100 µM | > 100 µM | > 100 µM | > 100 µM | > 100 µM | > 100 µM | > 100 µM | > 100 µM | > 100 µM | > 100 µM | > 100 µM | > 100 µM | > 100 µM | 
2 | CC(C)(C)OC(=O)NC(Cc1ccc(O)cn1)C(=O)O (configuration not stated) | > 100 µM | > 100 µM | > 100 µM | > 100 µM | > 100 µM |  | > 100 µM | > 100 µM |  | > 100 µM | > 100 µM | > 100 µM | > 100 µM | > 100 µM | > 100 µM | > 100 µM | > 100 µM | > 100 µM | > 100 µM
3 | CC1CC/C(=C\c2ccc(N(C)C)cc2)C2=C1C(c1ccc(N(C)C)cc1)NC(=S)N2 (configuration not stated) | > 100 µM | > 100 µM | > 100 µM |  | > 100 µM | > 100 µM | > 100 µM | > 100 µM | > 100 µM | > 100 µM | > 100 µM |  | > 100 µM | > 100 µM | > 100 µM | > 100 µM | > 100 µM | > 100 µM | > 100 µM
4 | CC1(C)C2CC(O)C1CCC2=O (configuration not stated) | > 100 µM | > 100 µM | > 100 µM | > 100 µM | > 100 µM | > 100 µM |  | > 100 µM | > 100 µM | > 100 µM |  | > 100 µM | > 100 µM | > 100 µM | > 100 µM | > 100 µM | > 100 µM | > 100 µM | > 100 µM
5 | N#Cc1ccc(N2CCOCC2)cc1 |  | > 100 µM | > 100 µM | > 100 µM | > 100 µM | > 100 µM | > 100 µM | > 100 µM | > 100 µM | > 100 µM | > 100 µM | > 100 µM | > 100 µM | > 100 µM | > 100 µM | > 100 µM | > 100 µM |  | > 100 µM
6 | CCN(CC)CCN(C(=Nc1ccccc1)N1CCCCC1)c1ccccc1 | 29.3 µM | 24.8 µM | > 100 µM | 22.2 µM | 28.3 µM | 37.7 µM | 20.6 µM | 29.5 µM |  | 47 µM | > 100 µM | 24.8 µM | 6.95 µM | 56.7 µM | 25.6 µM | 30.9 µM | 11.2 µM | 40.1 µM | 46 µM
7 | Cc1ccc(-c2n[nH]c(=O)n2NC(=O)c2ccccc2C(=O)O)cc1 | > 100 µM | > 100 µM | > 100 µM | > 100 µM | > 100 µM | > 100 µM | > 100 µM | > 100 µM | > 100 µM | > 100 µM |  | > 100 µM | > 100 µM | > 100 µM | > 100 µM | > 100 µM | > 100 µM | > 100 µM | > 100 µM
8 | O=c1cc(CSc2c(-c3ccccc3)c(=O)n(-c3ccccc3)c(=S)n2-c2ccccc2)[nH]c(=O)[nH]1 |  | > 100 µM | > 100 µM | > 100 µM | > 100 µM | > 100 µM | > 100 µM | > 100 µM | > 100 µM | > 100 µM | > 100 µM | > 100 µM | > 100 µM | > 100 µM |  | > 100 µM | > 100 µM |  | > 100 µM
9 | C=CCN1C[C@H](C)N([C@@H](c2ccc(C(=O)N3CCCCC3)cc2)c2cccc(OC)c2)C[C@H]1C | > 100 µM | 72.2 µM | > 100 µM | > 100 µM | > 100 µM | 60.3 µM | > 100 µM | > 100 µM | 64.8 µM | > 100 µM | > 100 µM | > 100 µM | 21.5 µM | > 100 µM | > 100 µM | > 100 µM | > 100 µM | 40.7 µM | 
10 | CCC1CCN=C(NS(=O)(=O)c2cc(C)c(Cl)cc2S)N1 (configuration not stated) | 73.6 µM | > 100 µM | > 100 µM | > 100 µM |  | > 100 µM | > 100 µM | 44.6 µM | 54.3 µM | 57.2 µM | > 100 µM | > 100 µM | 82.5 µM | > 100 µM |  | 88.9 µM | > 100 µM | 92.9 µM | > 100 µM
11 | C[Si](C)(N[Si](C)(C)OCCc1ccccc1)OCCc1ccccc1 | > 100 µM | > 100 µM | > 100 µM | > 100 µM | > 100 µM | > 100 µM | > 100 µM | > 100 µM | > 100 µM | > 100 µM | > 100 µM | > 100 µM | > 100 µM | > 100 µM | > 100 µM | > 100 µM | > 100 µM |  | > 100 µM
12 | O=C(CCCN1CCC(Nc2ccccc2)(c2nnnn2C2CCCCC2)CC1)c1ccc(F)cc1 | 36.5 µM | 24.7 µM |  | 21.3 µM | 24 µM | 23.7 µM | 23.2 µM | 68.3 µM | 23.9 µM | 20.4 µM | 9.53 µM | 35 µM | 29.6 µM | 5.74 µM | 28.8 µM | 14.6 µM | 18.1 µM | 27.4 µM | 12.3 µM
13 | CN(C)CCCSc1nc2c(c(=N)n1-c1ccccc1)c(=S)n(-c1ccccc1)c(=S)n2-c1ccccc1 | 28.4 µM | 3.14 µM | 3.16 µM | 3.4 µM | 3.12 µM | 4.11 µM | 3.14 µM | 3.2 µM | 3.23 µM | 3.38 µM | 3.58 µM | 3.24 µM | 1.75 µM | > 100 µM | 4.45 µM |  | 3.18 µM | 3.6 µM | 3.88 µM
